# Laboratory results taken from PMC8286840, “Identifying SARS-CoV-2 antiviral compounds by screening for small molecule inhibitors of Nsp3 papain-like protease” (Biochemical Journal, 2021).
# Where a name gives a salt, the structure may show the parent alone. Read-outs that look alike come from different tables or passages of the source.
# What was measured:
# [1] = biological target: T1, SARS-CoV-2 PLpro (nsp3 1564–1878) (Severe acute respiratory syndrome coronavirus 2, UniProt P0DTD1); assay: biochemical; set-up: FRET-quenched peptide (Pro3) cleavage by PLpro, 10 min pre-incubation, slope over 20 min, normalised to no-compound control; settings: high concentration screen, read-out: % of control remaining
# [2] = biological target: T1, SARS-CoV-2 PLpro (nsp3 1564–1878); assay: biochemical; set-up: FRET-quenched peptide (Pro3) cleavage by PLpro, 10 min pre-incubation, slope over 20 min, normalised to no-compound control; settings: low concentration screen, read-out: % of control remaining
compound,measurement,setting,value
CCCCCCCCCCCCCCCCOC[C@H](CO)OC [1-Hexadecyl-2-O-methyl-glycerol],remaining activity at 3.75 µM,[1]; Well no.=4572,99.2%
same,remaining activity at 1.25 µM,[2]; Well no.=4572,97.5%
CC(C)CC(N)=O [Isovaleramide],remaining activity at 3.75 µM,[1]; Well no.=8346,81.6%
same,remaining activity at 1.25 µM,[2]; Well no.=8346,89.1%
Fc1ccc(-c2c3cccc(C(F)(F)F)c3nn2Cc2ccc(F)cc2Cl)cc1 [2-(2-chloro-4-fluorobenzyl)-3-(4-fluorophenyl)-7-(trifluoromethyl)-2H-indazole],remaining activity at 3.75 µM,[1]; Well no.=6061,94.4%
same,remaining activity at 1.25 µM,[2]; Well no.=6061,93.7%
Cc1ccc(NC(=O)Nc2cc(-c3ccccc3-c3nn[nH]n3)ccc2N(CC(C)C)CC(C)C)cc1 [IDO-IN-2],remaining activity at 3.75 µM,[1]; Well no.=8123,94.6%
same,remaining activity at 1.25 µM,[2]; Well no.=8123,99.9%
COc1ccc([C@@H]2CC(=O)c3c(O)cc(O)cc3O2)cc1O [Hesperetin],remaining activity at 3.75 µM,[1]; Well no.=6630,104%
same,remaining activity at 1.25 µM,[2]; Well no.=6630,103%
COc1cc2nc(N3CCN(C(=O)C4CCCO4)CC3)nc(N)c2cc1OC (centres unmarked) [Terazosin],remaining activity at 3.75 µM,[1]; Well no.=2301,89.8%
same,remaining activity at 1.25 µM,[2]; Well no.=2301,90.8%
C[C@H](CCC(=O)O)[C@H]1CC[C@H]2[C@@H]3CC[C@@H]4C[C@H](O)CC[C@]4(C)[C@H]3CC[C@]12C [Lithocholic acid],remaining activity at 3.75 µM,[1]; Well no.=4646,93.6%
same,remaining activity at 3.75 µM,[1]; Well no.=7307,89.6%
same,remaining activity at 1.25 µM,[2]; Well no.=4646,95.7%
same,remaining activity at 1.25 µM,[2]; Well no.=7307,97.4%
NC(N)=NOCC[C@H](N)C(=O)O [L-Canavanine sulfate],remaining activity at 3.75 µM,[1]; Well no.=382,96.4%
same,remaining activity at 1.25 µM,[2]; Well no.=382,88.7%
CC[C@H](NC(=O)c1c(C)c(-c2ccccc2)nc2ccccc12)c1ccccc1 [SB-222200],remaining activity at 3.75 µM,[1]; Well no.=7005,86.5%
same,remaining activity at 1.25 µM,[2]; Well no.=7005,96.1%
Cn1c(=N)ccn([C@@H]2O[C@H](CO)[C@@H](O)[C@H]2O)c1=O [3-Methylcytidine],remaining activity at 3.75 µM,[1]; Well no.=7960,98.7%
same,remaining activity at 1.25 µM,[2]; Well no.=7960,97.2%
C[N+]1(CCCCC[N+]2(C)CCCC2)CCCC1 [Pentolinium di[L(+)-tartrate]],remaining activity at 3.75 µM,[1]; Well no.=810,96.3%
same,remaining activity at 1.25 µM,[2]; Well no.=810,96.7%
O=C(/C=C/c1ccc(Cl)cc1)N1CCC2(CC1)CN(Cc1ccc(Cl)c(Cl)c1)C(=O)O2 [GSK682753A],remaining activity at 3.75 µM,[1]; Well no.=7054,101%
same,remaining activity at 1.25 µM,[2]; Well no.=7054,107%
Nc1nc(CC(=O)Nc2ccc(CCNC[C@H](O)c3ccccc3)cc2)cs1 [Mirabegron (YM178)],remaining activity at 3.75 µM,[1]; Well no.=4652,97.1%
same,remaining activity at 1.25 µM,[2]; Well no.=4652,99.3%
CNCC(O)c1ccc(O)cc1 (centres unmarked) [Synephrine HCl],remaining activity at 3.75 µM,[1]; Well no.=4900,91.7%
same,remaining activity at 1.25 µM,[2]; Well no.=4900,95.6%
COc1cc2c(cc1OC)[C@@H](c1ccccc1)CN(C)CC2 [R(-)-SCH-12679 maleate],remaining activity at 3.75 µM,[1]; Well no.=1231,104%
same,remaining activity at 1.25 µM,[2]; Well no.=1231,101%
N=C(N)N/N=C/c1c(Cl)cccc1Cl [Guanabenz acetate],remaining activity at 3.75 µM,[1]; Well no.=604,96.2%
same,remaining activity at 1.25 µM,[2]; Well no.=604,96.6%
C[C@H]1CCC/C=C/[C@@H]2C[C@H](O)C[C@H]2[C@H](O)/C=C/C(=O)O1 [Brefeldin A],remaining activity at 3.75 µM,[1]; Well no.=3093,100%
same,remaining activity at 1.25 µM,[2]; Well no.=3093,101%
CCCc1cc(-c2nc(-c3ccc(C)cc3)cs2)ccn1 [Fatostatin HBr],remaining activity at 3.75 µM,[1]; Well no.=8822,92.8%
same,remaining activity at 1.25 µM,[2]; Well no.=8822,94.2%
Cc1onc(-c2ccccc2)c1C(=O)N[C@@H]1C(=O)N2[C@@H]1SC(C)(C)[C@@H]2C(=O)O [Oxacillin],remaining activity at 3.75 µM,[1]; Well no.=2057,103%
same,remaining activity at 1.25 µM,[2]; Well no.=2057,105%
COc1cc2c(=O)c(-c3ccc(O)cc3)coc2cc1O [Glycitein],remaining activity at 3.75 µM,[1]; Well no.=6248,101%
same,remaining activity at 1.25 µM,[2]; Well no.=6248,98.2%
C=CC1=C(C)c2cc3[nH]c(cc4nc(cc5[nH]c(cc1n2)c(C)c5CCC(=O)O)C(CCC(=O)O)=C4C)c(C)c3C=C [Protoporphyrin IX disodium],remaining activity at 3.75 µM,[1]; Well no.=1207,102%
same,remaining activity at 1.25 µM,[2]; Well no.=1207,104%
CC(CN1c2ccccc2Sc2ccccc21)N(C)C (centres unmarked),remaining activity at 3.75 µM,[1]; Well no.=3844,97.9%
same,remaining activity at 1.25 µM,[2]; Well no.=3844,101%
OC[C@H]1O[C@@H](n2cnc3c(NCCc4ccccc4)ncnc32)[C@H](O)[C@@H]1O [N6-2-Phenylethyladenosine],remaining activity at 3.75 µM,[1]; Well no.=1453,98.6%
same,remaining activity at 1.25 µM,[2]; Well no.=1453,98.5%
CCOCCn1c(C2CCN(CCc3ccc(C(C)(C)C(=O)O)cc3)CC2)nc2ccccc21 [Bilastine],remaining activity at 3.75 µM,[1]; Well no.=6188,100%
same,remaining activity at 1.25 µM,[2]; Well no.=6188,101%
c1ccc2[nH]c(-c3cscn3)nc2c1 [Thiabendazole],remaining activity at 3.75 µM,[1]; Well no.=4622,98.1%
same,remaining activity at 1.25 µM,[2]; Well no.=4622,100%
"Cn1nc2c3c(cccc31)C(=O)c1ccccc1-2 [JNK Inhibitor, Negative Control]",remaining activity at 3.75 µM,[1]; Well no.=2514,92.4%
same,remaining activity at 1.25 µM,[2]; Well no.=2514,91%
COc1ccc2c(c1)[C@]13CCCC[C@@H]1[C@H](C2)N(C)CC3 [Dextromethorphan hydrobromide monohydrate],remaining activity at 3.75 µM,[1]; Well no.=447,104%
same,remaining activity at 1.25 µM,[2]; Well no.=447,100%
"O=C(O)CCC/C=C\C/C=C\C=C\[C@@H](O)C/C=C\CCCCCO [12(S),20-DIHETE]",remaining activity at 3.75 µM,[1]; Well no.=4565,101%
same,remaining activity at 1.25 µM,[2]; Well no.=4565,99.6%
CN(C/C=C/c1ccccc1)Cc1cccc2ccccc12 [Naftifine HCl],remaining activity at 3.75 µM,[1]; Well no.=4983,96.2%
same,remaining activity at 1.25 µM,[2]; Well no.=4983,96.8%
OC[C@@H](O)C(O)[C@H](O)CO [D-Arabitol],remaining activity at 3.75 µM,[1]; Well no.=6501,93.2%
same,remaining activity at 1.25 µM,[2]; Well no.=6501,92.6%
CCCN1CCCC[C@H]1C(=O)Nc1c(C)cccc1C [Ropivacaine HCl],remaining activity at 3.75 µM,[1]; Well no.=4698,96.6%
same,remaining activity at 1.25 µM,[2]; Well no.=4698,99%
CC(C)C(O)C(=O)O (centres unmarked) [2-Hydroxy-3-methylbutanoic acid],remaining activity at 3.75 µM,[1]; Well no.=7503,98.9%
same,remaining activity at 1.25 µM,[2]; Well no.=7503,101%
COc1ccc(S(=O)(=O)N2CCC[C@H]2C(=O)Nc2cc(C)cc(C)c2)cc1 [ACT-462206],remaining activity at 3.75 µM,[1]; Well no.=6052,90.9%
same,remaining activity at 1.25 µM,[2]; Well no.=6052,95.5%
CCCCN(CCCC)CC(O)c1cc(Cl)cc2c1-c1ccc(Cl)cc1/C2=C/c1ccc(Cl)cc1 (centres unmarked) [Lumefantrine],remaining activity at 3.75 µM,[1]; Well no.=5499,108%
same,remaining activity at 1.25 µM,[2]; Well no.=5499,102%
CCCCC[C@H](O)/C=C/[C@@H]1[C@@H](C/C=C\CCCC(=O)O)[C@H](O)C[C@H]1O (racemic),remaining activity at 3.75 µM,[1]; Well no.=4479,101%
same,remaining activity at 1.25 µM,[2]; Well no.=4479,101%
CC(=O)[C@H]1CC[C@H]2[C@@H]3CC[C@H]4C[C@](C)(O)CC[C@]4(C)[C@H]3CC[C@]12C [Ganaxolone],remaining activity at 3.75 µM,[1]; Well no.=5901,94%
same,remaining activity at 1.25 µM,[2]; Well no.=5901,96.3%
